Assay results taken from PubChem BioAssay AID256 (DTP/NCI, 2004).
Values joined by “and” are separate entries in the source; they are usually repeats but may differ in a detail not shown here. Equal values may be shown once. Inconclusive results and toxic doses are left out.

Tested on: CD2F1 mice, L1210 leukemia ip, survival T/C
Assay: NCI In Vivo Anticancer Drug Screen. Data for tumor model L1210 Leukemia (intraperitoneal) in CD2F1 (CDF1) mice
Settings: endpoint: mean survival time, higher = longer survival
Method in brief: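 Compound-dosed mice with transplantable tumor versus matched vehicle controls; endpoint ratio T/C reported.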

Nc1n[nH]c(N)n1
T/C (dose: 3.2 mg/kg/injection, schedule: Q## X008 (iv), vehicle: water): 100 % of control | T/C (dose: 6.3 mg/kg/injection, schedule: Q## X008 (iv), vehicle: water): 103 % of control | T/C (dose: 12.5 mg/kg/injection, schedule: Q## X004 (iv), vehicle: water): 100 % of control | T/C (dose: 12.5 mg/kg/injection, schedule: Q## X008 (iv), vehicle: water): 102 % of control | T/C (dose: 25.0 mg/kg/injection, schedule: Q## X004 (iv), vehicle: water): 104 % of control | T/C (dose: 25.0 mg/kg/injection, schedule: Q## X008 (iv), vehicle: water): 101 % of control | T/C (dose: 50.0 mg/kg/injection, schedule: Q03HX024 (ip), vehicle: saline): 103 % of control | T/C (dose: 50.0 mg/kg/injection, schedule: Q## X004 (iv), vehicle: water): 103 % of control | T/C (dose: 50.0 mg/kg/injection, schedule: Q## X008 (iv), vehicle: water): 103 % of control | T/C (dose: 50.0 mg/kg/injection, schedule: Q## X068 (ip), vehicle: water): 110 % of control | T/C (dose: 50.0 mg/kg/injection, schedule: Q#A X002 (iv), vehicle: water): 106 % of control | T/C (dose: 100.0 mg/kg/injection, schedule: Q01DX007 (ip), vehicle: saline): 113 % of control | T/C (dose: 100.0 mg/kg/injection, schedule: Q01DX009 (ip), vehicle: saline): 104 % of control | T/C (dose: 100.0 mg/kg/injection, schedule: Q03DX003 (ip), vehicle: saline): 105 % of control | T/C (dose: 100.0 mg/kg/injection, schedule: Q03HX024 (ip), vehicle: saline): 117 % of control and 103 % of control and 112 % of control | T/C (dose: 100.0 mg/kg/injection, schedule: Q04DX003 (ip), vehicle: saline): 105 % of control | T/C (dose: 100.0 mg/kg/injection, schedule: Q## X004 (iv), vehicle: water): 105 % of control | T/C (dose: 100.0 mg/kg/injection, schedule: Q## X008 (iv), vehicle: water): 102 % of control | T/C (dose: 100.0 mg/kg/injection, schedule: Q#A X002 (iv), vehicle: water): 96 % of control | T/C (dose: 100.0 mg/kg/injection, schedule: Q#A X034 (ip), vehicle: water): 118 % of control | T/C (dose: 200.0 mg/kg/injection, schedule: Q01DX017 (ip), vehicle: water): 113 % of control | T/C (dose: 200.0 mg/kg/injection, schedule: Q03DX003 (ip), vehicle: saline): 105 % of control | T/C (dose: 200.0 mg/kg/injection, schedule: Q04DX003 (ip), vehicle: saline): 106 % of control | T/C (dose: 200.0 mg/kg/injection, schedule: Q## X004 (iv), vehicle: water): 105 % of control | T/C (dose: 200.0 mg/kg/injection, schedule: Q## X068 (ip), vehicle: water): 190 % of control | T/C (dose: 200.0 mg/kg/injection, schedule: Q#A X002 (iv), vehicle: water): 103 % of control | T/C (dose: 200.0 mg/kg/injection, schedule: Q#A X010 (ip), vehicle: water): 106 % of control | T/C (dose: 400.0 mg/kg/injection, schedule: Q01DX001 (iv), vehicle: water): 104 % of control | T/C (dose: 400.0 mg/kg/injection, schedule: Q03DX003 (ip), vehicle: saline): 113 % of control | T/C (dose: 400.0 mg/kg/injection, schedule: Q03HX024 (ip), vehicle: saline): 203 % of control and 221 % of control and 237 % of control | T/C (dose: 400.0 mg/kg/injection, schedule: Q04DX003 (ip), vehicle: saline): 106 % of control | T/C (dose: 400.0 mg/kg/injection, schedule: Q## X068 (ip), vehicle: water): 116 % of control | T/C (dose: 400.0 mg/kg/injection, schedule: Q#A X002 (iv), vehicle: water): 110 % of control | T/C (dose: 400.0 mg/kg/injection, schedule: Q#A X010 (ip), vehicle: water): 113 % of control | T/C (dose: 400.0 mg/kg/injection, schedule: Q#A X018 (ip), vehicle: water): 203 % of control | T/C (dose: 400.0 mg/kg/injection, schedule: Q#A X034 (ip), vehicle: water): 208 % of control | T/C (dose: 512.0 mg/kg/injection, schedule: Q12HX018 (ip), vehicle: saline): 104 % of control | T/C (dose: 800.0 mg/kg/injection, schedule: Q01DX001 (iv), vehicle: water): 103 % of control | T/C (dose: 800.0 mg/kg/injection, schedule: Q01DX017 (ip), vehicle: water): 150 % of control | T/C (dose: 800.0 mg/kg/injection, schedule: Q#A X002 (iv), vehicle: water): 110 % of control | T/C (dose: 800.0 mg/kg/injection, schedule: Q#A X010 (ip), vehicle: water): 122 % of control | T/C (dose: 800.0 mg/kg/injection, schedule: Q#A X018 (ip), vehicle: water): 181 % of control | T/C (dose: 800.0 mg/kg/injection, schedule: Q#A X034 (ip), vehicle: water): 97 % of control | T/C (dose: 1024.0 mg/kg/injection, schedule: Q12HX018 (ip), vehicle: saline): 120 % of control | T/C (dose: 1600.0 mg/kg/injection, schedule: Q01DX001 (iv), vehicle: water): 105 % of control | T/C (dose: 1600.0 mg/kg/injection, schedule: Q01DX017 (ip), vehicle: water): 165 % of control
